Data published in patent US11643429B2, “Compounds and methods for the treatment of ocular disorders” (Azura Ophthalmics Ltd., priority 2019, dated 2023).
Where two headings read alike, the source gives them in different places.

Experiment: Aqueous Hydrolysis Stability Assay
Type: physicochemical
Details: 50 mM HEPES buffer pH 7.5, read-out: T1/2 Aq Stability
Method: Determination of aqueous stability of the test compounds was performed using HIPLC-MS. A test compound 10 mM stock solution was prepared in DMSO. 10 μl of the DMSO stock solution was dissolved in 990 μl of 50 mM HEPES pH 7.5 buffer or 1:1 (v/v) of Acetonitrile:Water to make a 100 μM solution. Final DMSO concentration was 1%. The solution was kept at room temperature and injected without delay into the LCMS (Waters Xevo TQ-S or Micromass Ultima). Additional injections were performed at appropriate time points. Half-life (T1/2) of the parent conjugate was calculated using the peak area of the parent conjugate at each time point in the linear region of the log-linear plot.

SMILES	half-life at 100 µM (ND, estimated, in HEPES pH 7.5) [min]	half-life at 100 µM (HEPES pH 7.5, room temperature) [min]
CC[C@H]1OC(=O)[C@H](C)[C@@H](O[C@H]2C[C@@](C)(OC)[C@@H](O)[C@H](C)O2)[C@H](C)[C@@H](O[C@@H]2O[C@H](C)C[C@H](N(C)C)[C@H]2OC(=O)CO)[C@](C)(O)C[C@@H](C)CN(C)[C@H](C)[C@@H](O)[C@]1(C)O [Compound 1, (2S,3R,4S,6R)-4-(Dimethylamino)-2-(((2R,3S,4R,5R,8R,10R,11R,12S,13S,14R)-2-ethyl-3,4,10-trihydroxy-13-(((2R,4R,5S,6S)-5-hydroxy-4-methoxy-4,6-dimethyltetrahydro-2H-pyran-2-yl)oxy)-3,5,6,8,10,12,14-heptamethyl-15-oxo-1-oxa-6-azacyclopentadecan-11-yl)oxy)-6-methyltetrahydro-2H-pyran-3-yl 2-hydroxyacetate]	< 3	
CC[C@H]1OC(=O)[C@H](C)[C@@H](O[C@H]2C[C@@](C)(OC)[C@@H](O)[C@H](C)O2)[C@H](C)[C@@H](O[C@@H]2O[C@H](C)C[C@H](N(C)C)[C@H]2OC(=O)[C@@H](C)O)[C@](C)(O)C[C@@H](C)CN(C)[C@H](C)[C@@H](O)[C@]1(C)O [Compound 2, (2S,3R,4S,6R)-4-(Dimethylamino)-2-(((2R,3S,4R,5R,8R,10R,11R,12S,13S,14R)-2-ethyl-3,4,10-trihydroxy-13-(((2R,4R,5S,6S)-5-hydroxy-4-methoxy-4,6-dimethyltetrahydro-2H-pyran-2-yl)oxy)-3,5,6,8,10,12,14-heptamethyl-15-oxo-1-oxa-6-azacyclopentadecan-11-yl)oxy)-6-methyltetrahydro-2H-pyran-3-yl (R)-2-hydroxypropanoate]		< 3
CC[C@H]1OC(=O)[C@H](C)[C@@H](O[C@H]2C[C@@](C)(OC)[C@@H](O)[C@H](C)O2)[C@H](C)[C@@H](O[C@@H]2O[C@H](C)C[C@H](N(C)C)[C@H]2OC(=O)COCCOCCOCCOCCO)[C@](C)(O)C[C@@H](C)CN(C)[C@H](C)[C@@H](O)[C@]1(C)O [Compound 4, (2S,3R,4S,6R)-4-(Dimethylamino)-2-(((2R,3S,4R,5R,8R,10R,11R,12S,13S,14R)-2-ethyl-3,4,10-trihydroxy-13-(((2R,4R,5S,6S)-5-hydroxy-4-methoxy-4,6-dimethyltetrahydro-2H-pyran-2-yl)oxy)-3,5,6,8,10,12,14-heptamethyl-15-oxo-1-oxa-6-azacyclopentadecan-11-yl)oxy)-6-methyltetrahydro-2H-pyran-3-yl 14-hydroxy-3,6,9,12-tetraoxatetradecanoate]		5.7
CC[C@H]1OC(=O)[C@H](C)[C@@H](O[C@H]2C[C@@](C)(OC)[C@@H](O)[C@H](C)O2)[C@H](C)[C@@H](O[C@@H]2O[C@H](C)C[C@H](N(C)C)[C@H]2OC(=O)[C@@H](C)OC(=O)[C@H](CS)NC(C)=O)[C@](C)(O)C[C@@H](C)CN(C)[C@H](C)[C@@H](O)[C@]1(C)O [Compound 6, (R)-1-(((2S,3R,4S,6R)-4-(Dimethylamino)-2-(((2R,3S,4R,5R,8R,10R,11R,12S,13S,14R)-2-ethyl-3,4,10-trihydroxy-13-(((2R,4R,5S,6S)-5-hydroxy-4-methoxy-4,6-dimethyltetrahydro-2H-pyran-2-yl)oxy)-3,5,6,8,10,12,14-heptamethyl-15-oxo-1-oxa-6-azacyclopentadecan-11-yl)oxy)-6-methyltetrahydro-2H-pyran-3-yl)oxy)-1-oxopropan-2-yl acetyl-L-cysteinate]	< 3	
